Experimental data: the kinase profiling compilation of Christmann-Franck et al. (2016)

Tests used:
Test in all cases: radiometric filter-binding kinase assay
AURKB (human) = AURKB (human) (UniProt Q96GD4)
CDK2 CCNA2 (human) = CDK2 CCNA2 (human) (UniProt P20248+P24941)
CHEK2 (human) = CHEK2 (human) (UniProt O96017)
CSK (human) = CSK (human) (UniProt P41240)
CSNK2A1 (human) = CSNK2A1 (human) (UniProt P68400)
EEF2K (human) = EEF2K (human) (UniProt O00418)
GSK3B (human) = GSK3B (human) (UniProt P49841)
IKBKB (human) = IKBKB (human) (UniProt O14920)
LCK (mouse) = details: accession and sequence are those of the human protein
MAPK1 (human) = MAPK1 (human) (UniProt P28482)
Sequence of MAPK1 (human) (P28482 whole entry, looked up): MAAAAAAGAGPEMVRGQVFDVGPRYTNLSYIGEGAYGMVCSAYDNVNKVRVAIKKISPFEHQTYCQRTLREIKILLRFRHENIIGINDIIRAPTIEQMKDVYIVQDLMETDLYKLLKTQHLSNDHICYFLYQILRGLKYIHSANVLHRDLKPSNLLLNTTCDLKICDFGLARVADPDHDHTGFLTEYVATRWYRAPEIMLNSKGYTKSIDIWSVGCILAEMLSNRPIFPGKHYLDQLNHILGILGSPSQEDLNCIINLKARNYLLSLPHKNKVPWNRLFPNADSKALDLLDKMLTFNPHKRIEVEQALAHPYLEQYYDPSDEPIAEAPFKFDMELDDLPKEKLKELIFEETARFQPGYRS

MAPK13 (human) = MAPK13 (human) (UniProt O15264)
Sequence of MAPK13 (human) (O15264 whole entry, looked up): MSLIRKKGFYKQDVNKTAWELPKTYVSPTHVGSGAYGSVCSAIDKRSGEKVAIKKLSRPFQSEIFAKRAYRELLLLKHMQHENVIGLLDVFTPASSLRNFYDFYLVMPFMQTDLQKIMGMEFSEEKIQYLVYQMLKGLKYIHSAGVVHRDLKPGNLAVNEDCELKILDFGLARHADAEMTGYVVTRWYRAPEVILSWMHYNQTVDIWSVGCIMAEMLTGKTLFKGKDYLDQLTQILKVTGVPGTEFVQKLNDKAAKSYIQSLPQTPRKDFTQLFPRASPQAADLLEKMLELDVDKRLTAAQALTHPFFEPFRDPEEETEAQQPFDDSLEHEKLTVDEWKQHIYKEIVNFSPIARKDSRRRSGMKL

MAPKAPK3 (human) = MAPKAPK3 (human) (UniProt Q16644)
MELK (human) = MELK (human) (UniProt Q14680)
Sequence of MELK (human) (Q14680 whole entry, looked up): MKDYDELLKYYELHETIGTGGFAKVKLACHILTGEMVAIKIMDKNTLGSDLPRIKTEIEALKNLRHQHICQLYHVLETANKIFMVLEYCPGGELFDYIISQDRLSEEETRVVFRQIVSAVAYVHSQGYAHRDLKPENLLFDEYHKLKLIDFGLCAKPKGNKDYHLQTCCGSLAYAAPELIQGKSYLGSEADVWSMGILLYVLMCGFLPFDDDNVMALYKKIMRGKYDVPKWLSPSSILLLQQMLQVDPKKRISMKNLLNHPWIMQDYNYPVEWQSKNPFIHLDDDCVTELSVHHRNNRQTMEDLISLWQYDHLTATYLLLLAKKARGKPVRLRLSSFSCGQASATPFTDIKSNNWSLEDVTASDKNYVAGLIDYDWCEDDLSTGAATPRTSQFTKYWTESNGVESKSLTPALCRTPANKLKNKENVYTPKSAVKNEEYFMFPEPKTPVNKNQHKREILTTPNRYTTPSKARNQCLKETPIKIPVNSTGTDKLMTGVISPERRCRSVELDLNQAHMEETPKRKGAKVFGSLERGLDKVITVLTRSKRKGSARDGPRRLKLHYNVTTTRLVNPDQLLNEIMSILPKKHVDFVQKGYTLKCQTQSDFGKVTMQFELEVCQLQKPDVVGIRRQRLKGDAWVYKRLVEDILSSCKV

MKNK1 (human) = MKNK1 (human) (UniProt Q9BUB5)
MKNK2 (human) = MKNK2 (human) (UniProt Q9HBH9)
MYLK (human) = MYLK (human) (UniProt Q15746)
PHKG1 (human) = PHKG1 (human) (UniProt Q16816)
Sequence of PHKG1 (human) (Q16816 whole entry, looked up): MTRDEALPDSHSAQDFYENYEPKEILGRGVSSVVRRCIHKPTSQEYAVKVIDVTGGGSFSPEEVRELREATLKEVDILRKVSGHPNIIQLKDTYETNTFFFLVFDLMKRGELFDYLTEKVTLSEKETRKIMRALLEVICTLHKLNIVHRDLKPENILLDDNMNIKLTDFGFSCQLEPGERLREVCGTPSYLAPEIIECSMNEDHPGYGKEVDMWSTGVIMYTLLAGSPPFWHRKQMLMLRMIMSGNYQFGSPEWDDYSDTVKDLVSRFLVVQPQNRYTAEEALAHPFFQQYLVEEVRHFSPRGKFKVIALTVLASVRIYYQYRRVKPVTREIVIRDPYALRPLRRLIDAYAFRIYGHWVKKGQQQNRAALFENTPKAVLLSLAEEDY

PRKAA1 or PRKAA2 (rat) = details: accession and sequence are those of the human protein
PRKACA (human) = PRKACA (human) (UniProt P17612)
PRKCZ (human) = PRKCZ (human) (UniProt Q05513)
Sequence of PRKCZ (human) (Q05513 whole entry, looked up): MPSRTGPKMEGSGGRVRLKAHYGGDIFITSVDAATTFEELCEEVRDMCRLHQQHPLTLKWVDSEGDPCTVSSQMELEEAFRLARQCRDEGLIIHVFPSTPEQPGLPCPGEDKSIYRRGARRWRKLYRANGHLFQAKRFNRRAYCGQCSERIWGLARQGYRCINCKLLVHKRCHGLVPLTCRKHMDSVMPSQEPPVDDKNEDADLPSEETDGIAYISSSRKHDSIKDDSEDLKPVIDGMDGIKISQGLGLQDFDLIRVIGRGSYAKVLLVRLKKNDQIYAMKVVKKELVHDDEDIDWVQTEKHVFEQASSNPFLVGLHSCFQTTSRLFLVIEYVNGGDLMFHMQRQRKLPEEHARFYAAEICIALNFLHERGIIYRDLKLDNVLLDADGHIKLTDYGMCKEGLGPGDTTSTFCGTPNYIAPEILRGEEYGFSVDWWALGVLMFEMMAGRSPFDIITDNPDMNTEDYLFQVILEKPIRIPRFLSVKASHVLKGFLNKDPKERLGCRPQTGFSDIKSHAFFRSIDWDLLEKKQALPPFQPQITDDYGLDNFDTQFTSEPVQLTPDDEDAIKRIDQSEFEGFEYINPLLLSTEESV

ROCK2 (rat) = details: accession and sequence are those of the human protein
RPS6KA1 KD1 KD2 (human) = RPS6KA1 KD1 KD2 (human) (UniProt Q15418)
Sequence of RPS6KA1 KD1 KD2 (human) (Q15418 whole entry, looked up): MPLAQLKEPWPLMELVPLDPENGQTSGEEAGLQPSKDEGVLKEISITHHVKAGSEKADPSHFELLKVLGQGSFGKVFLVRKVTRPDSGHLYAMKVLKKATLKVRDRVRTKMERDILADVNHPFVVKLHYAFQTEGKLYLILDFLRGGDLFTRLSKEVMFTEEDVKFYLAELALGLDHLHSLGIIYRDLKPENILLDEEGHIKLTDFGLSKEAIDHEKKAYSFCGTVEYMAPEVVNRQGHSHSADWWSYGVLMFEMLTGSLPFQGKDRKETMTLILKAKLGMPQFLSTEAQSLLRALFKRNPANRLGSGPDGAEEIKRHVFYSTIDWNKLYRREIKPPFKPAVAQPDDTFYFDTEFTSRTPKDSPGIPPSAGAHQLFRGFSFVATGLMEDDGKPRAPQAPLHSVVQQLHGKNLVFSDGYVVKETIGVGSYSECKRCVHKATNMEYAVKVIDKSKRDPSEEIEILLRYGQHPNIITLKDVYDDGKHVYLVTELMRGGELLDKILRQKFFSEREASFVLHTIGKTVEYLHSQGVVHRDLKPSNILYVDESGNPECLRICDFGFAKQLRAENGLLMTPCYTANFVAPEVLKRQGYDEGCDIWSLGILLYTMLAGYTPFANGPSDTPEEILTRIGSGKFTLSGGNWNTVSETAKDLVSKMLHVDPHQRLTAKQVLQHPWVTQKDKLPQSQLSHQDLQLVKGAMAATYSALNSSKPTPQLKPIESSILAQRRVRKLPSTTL

SRC (human) = SRC (human) (UniProt P12931)
Sequence of SRC (human) (P12931 whole entry, looked up): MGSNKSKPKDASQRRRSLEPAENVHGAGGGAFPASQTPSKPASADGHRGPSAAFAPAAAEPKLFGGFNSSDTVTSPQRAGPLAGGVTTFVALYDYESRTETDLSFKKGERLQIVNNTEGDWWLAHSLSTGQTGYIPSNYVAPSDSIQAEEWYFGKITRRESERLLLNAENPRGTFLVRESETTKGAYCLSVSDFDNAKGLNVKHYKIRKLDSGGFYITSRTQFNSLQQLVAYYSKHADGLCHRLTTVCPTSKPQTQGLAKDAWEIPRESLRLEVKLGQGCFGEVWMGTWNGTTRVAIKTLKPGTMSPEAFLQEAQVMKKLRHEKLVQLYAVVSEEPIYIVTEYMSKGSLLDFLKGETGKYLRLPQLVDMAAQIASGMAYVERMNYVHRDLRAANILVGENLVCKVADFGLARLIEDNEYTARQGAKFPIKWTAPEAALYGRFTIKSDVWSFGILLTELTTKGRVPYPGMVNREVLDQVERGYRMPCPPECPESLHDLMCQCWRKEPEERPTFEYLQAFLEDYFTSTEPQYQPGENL

Sequence of AURKB (human) (Q96GD4 whole entry, looked up): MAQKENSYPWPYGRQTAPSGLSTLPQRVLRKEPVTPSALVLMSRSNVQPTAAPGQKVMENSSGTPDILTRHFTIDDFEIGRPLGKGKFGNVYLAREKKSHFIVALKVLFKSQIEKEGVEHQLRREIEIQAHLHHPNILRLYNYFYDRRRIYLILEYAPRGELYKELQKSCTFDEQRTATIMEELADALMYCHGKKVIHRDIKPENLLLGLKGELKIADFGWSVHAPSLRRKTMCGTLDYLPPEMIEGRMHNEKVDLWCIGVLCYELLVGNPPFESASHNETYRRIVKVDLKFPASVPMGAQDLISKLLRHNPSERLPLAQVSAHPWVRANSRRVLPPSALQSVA
Sequence of EEF2K (human) (O00418 whole entry, looked up): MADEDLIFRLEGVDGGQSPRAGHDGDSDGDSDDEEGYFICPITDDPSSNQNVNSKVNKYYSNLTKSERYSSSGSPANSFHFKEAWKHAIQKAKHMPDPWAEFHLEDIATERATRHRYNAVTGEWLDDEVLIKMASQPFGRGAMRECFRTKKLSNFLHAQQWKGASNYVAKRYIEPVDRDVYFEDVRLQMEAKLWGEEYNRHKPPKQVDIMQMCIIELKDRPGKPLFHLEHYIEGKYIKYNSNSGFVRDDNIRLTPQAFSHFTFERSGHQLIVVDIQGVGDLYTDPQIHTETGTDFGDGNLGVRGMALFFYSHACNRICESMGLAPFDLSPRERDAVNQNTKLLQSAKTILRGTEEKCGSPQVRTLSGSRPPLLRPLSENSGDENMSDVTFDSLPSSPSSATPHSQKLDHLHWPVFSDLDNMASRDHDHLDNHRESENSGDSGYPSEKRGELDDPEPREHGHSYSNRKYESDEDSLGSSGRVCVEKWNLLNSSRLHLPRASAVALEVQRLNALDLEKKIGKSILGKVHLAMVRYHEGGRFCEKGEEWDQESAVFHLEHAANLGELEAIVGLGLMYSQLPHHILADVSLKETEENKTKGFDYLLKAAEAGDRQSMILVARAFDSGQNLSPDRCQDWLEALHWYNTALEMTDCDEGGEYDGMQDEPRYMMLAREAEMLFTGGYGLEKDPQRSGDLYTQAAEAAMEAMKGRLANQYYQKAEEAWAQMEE

Compound: Cn1nc(Nc2ccc(F)cc2)c2c(N)ncnc21
- residual activity (AURKB (human); compound 1.0 µM): 98%
- residual activity (AURKB (human); compound 10.0 µM): 82%
- residual activity (CDK2 CCNA2 (human); compound 1.0 µM): 98%
- residual activity (CDK2 CCNA2 (human); compound 10.0 µM): 96%
- residual activity (CHEK2 (human); compound 1.0 µM): 103%
- residual activity (CHEK2 (human); compound 10.0 µM): 96%
- residual activity (CSK (human); compound 1.0 µM): 88%
- residual activity (CSK (human); compound 10.0 µM): 76%
- residual activity (CSNK2A1 (human); compound 1.0 µM): 91%
- residual activity (CSNK2A1 (human); compound 10.0 µM): 96%
- residual activity (EEF2K (human); compound 1.0 µM): 102%
- residual activity (EEF2K (human); compound 10.0 µM): 103%
- residual activity (GSK3B (human); compound 1.0 µM): 119%
- residual activity (GSK3B (human); compound 10.0 µM): 125%
- residual activity (IKBKB (human); compound 1.0 µM): 98%
- residual activity (IKBKB (human); compound 10.0 µM): 96%
- residual activity (LCK (mouse); compound 1.0 µM): 112%
- residual activity (LCK (mouse); compound 10.0 µM): 81%
- residual activity (MAPK1 (human); compound 1.0 µM): 107%
- residual activity (MAPK1 (human); compound 10.0 µM): 110%
- residual activity (MAPK13 (human); compound 1.0 µM): 104%
- residual activity (MAPK13 (human); compound 10.0 µM): 109%
- residual activity (MAPKAPK3 (human); compound 1.0 µM): 137%
- residual activity (MAPKAPK3 (human); compound 10.0 µM): 132%
- residual activity (MELK (human); compound 1.0 µM): 109%
- residual activity (MELK (human); compound 10.0 µM): 91%
- residual activity (MKNK1 (human); compound 1.0 µM): 95%
- residual activity (MKNK1 (human); compound 10.0 µM): 92%
- residual activity (MKNK2 (human); compound 1.0 µM): 104%
- residual activity (MKNK2 (human); compound 10.0 µM): 103%
- residual activity (MYLK (human); compound 1.0 µM): 94%
- residual activity (MYLK (human); compound 10.0 µM): 107%
- residual activity (PHKG1 (human); compound 1.0 µM): 113%
- residual activity (PHKG1 (human); compound 10.0 µM): 119%
- residual activity (PRKAA1 or PRKAA2 (rat); compound 1.0 µM): 105%
- residual activity (PRKAA1 or PRKAA2 (rat); compound 10.0 µM): 107%
- residual activity (PRKACA (human); compound 1.0 µM): 106%
- residual activity (PRKACA (human); compound 10.0 µM): 107%
- residual activity (PRKCZ (human); compound 1.0 µM): 97%
- residual activity (PRKCZ (human); compound 10.0 µM): 102%
- residual activity (ROCK2 (rat); compound 1.0 µM): 117%
- residual activity (ROCK2 (rat); compound 10.0 µM): 113%
- residual activity (RPS6KA1 KD1 KD2 (human); compound 1.0 µM): 121%
- residual activity (RPS6KA1 KD1 KD2 (human); compound 10.0 µM): 102%
- residual activity (SRC (human); compound 1.0 µM): 96%
- residual activity (SRC (human); compound 10.0 µM): 63%

Compound: Cc1cccc(Nc2nn(C)c3ncnc(N)c23)c1
- residual activity (AURKB (human); compound 1.0 µM): 96%
- residual activity (AURKB (human); compound 10.0 µM): 87%
- residual activity (CDK2 CCNA2 (human); compound 1.0 µM): 97%
- residual activity (CDK2 CCNA2 (human); compound 10.0 µM): 91%
- residual activity (CHEK2 (human); compound 1.0 µM): 84%
- residual activity (CHEK2 (human); compound 10.0 µM): 98%
- residual activity (CSK (human); compound 1.0 µM): 97%
- residual activity (CSK (human); compound 10.0 µM): 85%
- residual activity (CSNK2A1 (human); compound 1.0 µM): 93%
- residual activity (CSNK2A1 (human); compound 10.0 µM): 93%
- residual activity (EEF2K (human); compound 1.0 µM): 97%
- residual activity (EEF2K (human); compound 10.0 µM): 96%
- residual activity (GSK3B (human); compound 1.0 µM): 114%
- residual activity (GSK3B (human); compound 10.0 µM): 133%
- residual activity (IKBKB (human); compound 1.0 µM): 101%
- residual activity (IKBKB (human); compound 10.0 µM): 101%
- residual activity (LCK (mouse); compound 1.0 µM): 125%
- residual activity (LCK (mouse); compound 10.0 µM): 131%
- residual activity (MAPK1 (human); compound 1.0 µM): 116%
- residual activity (MAPK1 (human); compound 10.0 µM): 111%
- residual activity (MAPK13 (human); compound 1.0 µM): 101%
- residual activity (MAPK13 (human); compound 10.0 µM): 105%
- residual activity (MAPKAPK3 (human); compound 1.0 µM): 91%
- residual activity (MAPKAPK3 (human); compound 10.0 µM): 130%
- residual activity (MELK (human); compound 1.0 µM): 108%
- residual activity (MELK (human); compound 10.0 µM): 118%
- residual activity (MKNK1 (human); compound 1.0 µM): 92%
- residual activity (MKNK1 (human); compound 10.0 µM): 96%
- residual activity (MKNK2 (human); compound 1.0 µM): 103%
- residual activity (MKNK2 (human); compound 10.0 µM): 76%
- residual activity (MYLK (human); compound 1.0 µM): 93%
- residual activity (MYLK (human); compound 10.0 µM): 87%
- residual activity (PHKG1 (human); compound 1.0 µM): 106%
- residual activity (PHKG1 (human); compound 10.0 µM): 101%
- residual activity (PRKAA1 or PRKAA2 (rat); compound 1.0 µM): 111%
- residual activity (PRKAA1 or PRKAA2 (rat); compound 10.0 µM): 114%
- residual activity (PRKACA (human); compound 1.0 µM): 106%
- residual activity (PRKACA (human); compound 10.0 µM): 98%
- residual activity (PRKCZ (human); compound 1.0 µM): 89%
- residual activity (PRKCZ (human); compound 10.0 µM): 112%
- residual activity (ROCK2 (rat); compound 1.0 µM): 117%
- residual activity (ROCK2 (rat); compound 10.0 µM): 106%
- residual activity (RPS6KA1 KD1 KD2 (human); compound 1.0 µM): 108%
- residual activity (RPS6KA1 KD1 KD2 (human); compound 10.0 µM): 101%
- residual activity (SRC (human); compound 1.0 µM): 97%
- residual activity (SRC (human); compound 10.0 µM): 100%

Compound: COc1ccc2c(c1)c1c3c(c4c5ccccc5n(C)c4c1n2CC(O)CN(C)C)C(=O)NC3=O (stereo unspecified)
- residual activity (AURKB (human); compound 0.1 µM): 17%
- residual activity (AURKB (human); compound 1.0 µM): 14%
- residual activity (AURKB (human); compound 10.0 µM): 12%
- residual activity (CDK2 CCNA2 (human); compound 0.1 µM): 95%
- residual activity (CDK2 CCNA2 (human); compound 1.0 µM): 90%
- residual activity (CDK2 CCNA2 (human); compound 10.0 µM): 81%
- residual activity (CHEK2 (human); compound 0.1 µM): 57%
- residual activity (CHEK2 (human); compound 1.0 µM): 27%
- residual activity (CHEK2 (human); compound 10.0 µM): 10%
- residual activity (CSK (human); compound 0.1 µM): 84%
- residual activity (CSK (human); compound 1.0 µM): 78%
- residual activity (CSK (human); compound 10.0 µM): 58%
- residual activity (CSNK2A1 (human); compound 0.1 µM): 105%
- residual activity (CSNK2A1 (human); compound 1.0 µM): 83%
- residual activity (CSNK2A1 (human); compound 10.0 µM): 71%
- residual activity (EEF2K (human); compound 0.1 µM): 106%
- residual activity (EEF2K (human); compound 1.0 µM): 106%
- residual activity (EEF2K (human); compound 10.0 µM): 108%
- residual activity (GSK3B (human); compound 0.1 µM): 67%
- residual activity (GSK3B (human); compound 1.0 µM): 20%
- residual activity (GSK3B (human); compound 10.0 µM): 5%
- residual activity (IKBKB (human); compound 0.1 µM): 104%
- residual activity (IKBKB (human); compound 1.0 µM): 94%
- residual activity (IKBKB (human); compound 10.0 µM): 80%
- residual activity (LCK (mouse); compound 0.1 µM): 103%
- residual activity (LCK (mouse); compound 1.0 µM): 75%
- residual activity (LCK (mouse); compound 10.0 µM): 41%
- residual activity (MAPK1 (human); compound 0.1 µM): 114%
- residual activity (MAPK1 (human); compound 1.0 µM): 110%
- residual activity (MAPK1 (human); compound 10.0 µM): 106%
- residual activity (MAPK13 (human); compound 0.1 µM): 89%
- residual activity (MAPK13 (human); compound 1.0 µM): 65%
- residual activity (MAPK13 (human); compound 10.0 µM): 37%
- residual activity (MAPKAPK3 (human); compound 0.1 µM): 131%
- residual activity (MAPKAPK3 (human); compound 1.0 µM): 92%
- residual activity (MAPKAPK3 (human); compound 10.0 µM): 79%
- residual activity (MELK (human); compound 0.1 µM): 72%
- residual activity (MELK (human); compound 1.0 µM): 20%
- residual activity (MELK (human); compound 10.0 µM): 8%
- residual activity (MKNK1 (human); compound 0.1 µM): 94%
- residual activity (MKNK1 (human); compound 1.0 µM): 80%
- residual activity (MKNK1 (human); compound 10.0 µM): 62%
- residual activity (MKNK2 (human); compound 0.1 µM): 90%
- residual activity (MKNK2 (human); compound 1.0 µM): 88%
- residual activity (MKNK2 (human); compound 10.0 µM): 70%
- residual activity (MYLK (human); compound 0.1 µM): 15%
- residual activity (MYLK (human); compound 1.0 µM): 6%
- residual activity (MYLK (human); compound 10.0 µM): 3%
- residual activity (PHKG1 (human); compound 0.1 µM): 77%
- residual activity (PHKG1 (human); compound 1.0 µM): 17%
- residual activity (PHKG1 (human); compound 10.0 µM): 11%
- residual activity (PRKAA1 or PRKAA2 (rat); compound 0.1 µM): 64%
- residual activity (PRKAA1 or PRKAA2 (rat); compound 1.0 µM): 19%
- residual activity (PRKAA1 or PRKAA2 (rat); compound 10.0 µM): 24%
- residual activity (PRKACA (human); compound 0.1 µM): 42%
- residual activity (PRKACA (human); compound 1.0 µM): 7%
- residual activity (PRKACA (human); compound 10.0 µM): 2%
- residual activity (PRKCZ (human); compound 0.1 µM): 118%
- residual activity (PRKCZ (human); compound 1.0 µM): 74%
- residual activity (PRKCZ (human); compound 10.0 µM): 62%
- residual activity (ROCK2 (rat); compound 0.1 µM): 118%
- residual activity (ROCK2 (rat); compound 1.0 µM): 115%
- residual activity (ROCK2 (rat); compound 10.0 µM): 112%
- residual activity (RPS6KA1 KD1 KD2 (human); compound 0.1 µM): 10%
- residual activity (RPS6KA1 KD1 KD2 (human); compound 1.0 µM): 5%
- residual activity (RPS6KA1 KD1 KD2 (human); compound 10.0 µM): 5%
- residual activity (SRC (human); compound 0.1 µM): 104%
- residual activity (SRC (human); compound 1.0 µM): 95%
- residual activity (SRC (human); compound 10.0 µM): 63%
